Experiments:
KRAS G12V = KRAS G12V (Homo sapiens, UniProt P01116+P62937, G12V); assay: Disruption of BRAF RBD interaction with Ras (FRET / MOA assay, with Cyclophilin A); assay type: biochemical; details: KRAS G12V; read-out: KRAS G12V FRET data IC50
How it was run: (§1)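 Compound-driven ternary complex formation between nucleotide-loaded K-Ras and Cyclophilin A was measured as loss of BRAF RBD binding. Compounds (10-point 3-fold series, top 30 μM final) were incubated 3 h at 25 °C, then anti-His Eu-W1024 (10 nM) and anti-GST allophycocyanin (50 nM) added for 1.5 h. IC50 was taken from the TR-FRET ratio decrease versus DMSO.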

KRAS G12S = KRAS G12S (Homo sapiens, UniProt P01116+P62937, G12S); assay: as above; assay type: biochemical; details: read-out: KRAS G12S FRET data, IC50
How it was run: as §1

KRAS G13C = KRAS G13C (Homo sapiens, UniProt P01116+P62937, G13C); assay: as above; assay type: biochemical; details: read-out: KRAS G13C FRET data, IC50
How it was run: as §1

KRAS WT = KRAS WT (Homo sapiens, UniProt P01116+P62937); assay: as above; assay type: biochemical; details: KRAS WT; read-out: KRAS WT FRET data IC50
How it was run: as §1

KRAS G12D = KRAS G12D (Homo sapiens, UniProt P01116+P62937, G12D); assay: as above; assay type: biochemical; details: read-out: KRAS G12D FRET data, IC50
How it was run: as §1

KRAS G12C = KRAS G12C (Homo sapiens, UniProt P01116+P62937, G12C); assay: as above; assay type: biochemical; details: read-out: KRAS G12C FRET data, IC50
How it was run: as §1

KRAS G13D = KRAS G13D (Homo sapiens, UniProt P01116+P62937, G13D); assay: as above; assay type: biochemical; details: KRAS G13D; read-out: KRAS G13D FRET data IC50
How it was run: as §1

NRAS G12C = NRAS G12C (Homo sapiens, UniProt P01111+P62937, G12C); assay: as above; assay type: biochemical; details: NRAS G12C; read-out: NRAS G12C FRET data IC50
Capan-1 (K-Ras G12V) = assay: CellTiter-Glo cell viability assay, 5-day treatment; assay type: cell-based; details: Homo sapiens, CAPAN-1, 120 h, 5-day treatment; read-out: Capan-1 Cell Viability assay data (K-Ras G12V, IC50)
How it was run: (§2)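 Five-day compound treatment of plated cells; luminescent read after ~30 min at RT. Percent-of-DMSO data fit to a four-parameter logistic model.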

NCI-H358 (K-Ras G12C) = assay: as above; assay type: cell-based; details: Homo sapiens, NCI-H358, 120 h, 5-day treatment; read-out: H358 Cell Viability assay data (K-Ras G12C, IC50)
How it was run: as §2

NRAS Q61R = NRAS Q61R (Homo sapiens, UniProt P01111+P62937, Q61R); assay: Disruption of BRAF RBD interaction with Ras (FRET / MOA assay, with Cyclophilin A); assay type: biochemical; details: NRAS Q61R; read-out: NRAS Q61R FRET data IC50
How it was run: (§3)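 IC50 reflects compound-driven Ras:Cyclophilin A ternary complex displacing BRAF RBD, read as lowered TR-FRET ratio relative to DMSO after Eu anti-His (10 nM) and APC anti-GST (50 nM) detection for 1.5 h. Prior incubation 3 h, 25° C, with 12.5 nM GMPPNP-loaded Ras, 50 nM BRAF RBD, 25 μM Cyclophilin A; top compound 30 μM.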

KRAS Q61H = KRAS Q61H (Homo sapiens, UniProt P01116+P62937, Q61H); assay: as above; assay type: biochemical; details: KRAS Q61H; read-out: KRAS Q61H FRET data IC50
How it was run: as §3

NRAS WT = NRAS WT (Homo sapiens, UniProt P01111+P62937); assay: as above; assay type: biochemical; details: NRAS WT; read-out: NRAS WT FRET data IC50
How it was run: as §3

NRAS Q61K = NRAS Q61K (Homo sapiens, UniProt P01111+P62937, Q61K); assay: as above; assay type: biochemical; details: NRAS Q61K; read-out: NRAS Q61K FRET data IC50
How it was run: as §3

Chain of NRAS WT (P01111 whole entry): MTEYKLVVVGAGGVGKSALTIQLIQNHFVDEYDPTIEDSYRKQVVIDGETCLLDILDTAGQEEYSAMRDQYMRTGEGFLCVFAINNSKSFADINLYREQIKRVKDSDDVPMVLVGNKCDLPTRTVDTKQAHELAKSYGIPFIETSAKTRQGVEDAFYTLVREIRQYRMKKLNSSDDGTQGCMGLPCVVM
Chain of NRAS WT (P62937 whole entry): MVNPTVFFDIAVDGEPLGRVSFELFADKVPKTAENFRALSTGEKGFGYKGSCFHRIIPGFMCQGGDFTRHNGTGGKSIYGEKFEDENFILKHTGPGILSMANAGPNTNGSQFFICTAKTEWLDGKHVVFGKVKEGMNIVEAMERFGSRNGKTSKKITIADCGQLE
Chain of NRAS Q61K (P01111 whole entry Q61K): as the sequence (P01111 whole entry) above, with Q61K counted along it
Chain of NRAS Q61K (P62937 whole entry): as the sequence (P62937 whole entry) above
Chain of KRAS G12S (P01116 1-169 isoform P01116-2 G12S limits assumed): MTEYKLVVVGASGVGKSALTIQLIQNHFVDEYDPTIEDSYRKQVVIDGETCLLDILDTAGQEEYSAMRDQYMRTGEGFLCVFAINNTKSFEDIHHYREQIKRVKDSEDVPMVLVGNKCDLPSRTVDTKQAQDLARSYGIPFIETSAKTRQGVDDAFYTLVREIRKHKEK
Chain of KRAS G12S (P62937 whole entry): as the sequence (P62937 whole entry) above
Chain of NRAS G12C (P01111 whole entry G12C): as the sequence (P01111 whole entry) above, with G12C counted along it
Chain of NRAS G12C (P62937 whole entry): as the sequence (P62937 whole entry) above
Chain of KRAS WT (P01116 1-169 isoform P01116-2 limits assumed): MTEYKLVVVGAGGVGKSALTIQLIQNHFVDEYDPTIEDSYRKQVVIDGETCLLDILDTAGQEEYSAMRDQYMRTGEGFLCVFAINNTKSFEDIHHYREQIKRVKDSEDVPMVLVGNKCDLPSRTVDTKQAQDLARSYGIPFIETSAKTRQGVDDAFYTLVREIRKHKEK
Chain of KRAS WT (P62937 whole entry): as the sequence (P62937 whole entry) above
Chain of NRAS Q61R (P01111 whole entry Q61R): as the sequence (P01111 whole entry) above, with Q61R counted along it
Chain of NRAS Q61R (P62937 whole entry): as the sequence (P62937 whole entry) above
Chain of KRAS G12C (P01116 1-169 isoform P01116-2 G12C): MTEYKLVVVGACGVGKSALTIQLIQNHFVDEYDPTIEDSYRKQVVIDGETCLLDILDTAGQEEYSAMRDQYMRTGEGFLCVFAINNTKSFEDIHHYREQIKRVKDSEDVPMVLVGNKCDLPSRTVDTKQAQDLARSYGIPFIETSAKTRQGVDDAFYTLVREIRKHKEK
Chain of KRAS G12C (P62937 whole entry): as the sequence (P62937 whole entry) above
Chain of KRAS G12V (P01116 1-169 isoform P01116-2 G12V limits assumed): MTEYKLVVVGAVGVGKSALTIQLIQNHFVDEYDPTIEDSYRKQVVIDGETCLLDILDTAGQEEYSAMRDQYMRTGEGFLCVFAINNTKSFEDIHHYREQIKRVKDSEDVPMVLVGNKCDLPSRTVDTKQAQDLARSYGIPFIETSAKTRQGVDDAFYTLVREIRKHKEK
Chain of KRAS G12V (P62937 whole entry): as the sequence (P62937 whole entry) above
Chain of KRAS Q61H (P01116 1-169 isoform P01116-2 Q61H limits assumed): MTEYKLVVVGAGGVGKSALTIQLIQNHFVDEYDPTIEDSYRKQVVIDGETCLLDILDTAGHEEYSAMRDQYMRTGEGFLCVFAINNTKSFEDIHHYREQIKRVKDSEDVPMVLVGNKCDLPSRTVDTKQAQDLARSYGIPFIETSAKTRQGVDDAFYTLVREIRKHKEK
Chain of KRAS Q61H (P62937 whole entry): as the sequence (P62937 whole entry) above
Chain of KRAS G12D (P01116 1-169 isoform P01116-2 G12D limits assumed): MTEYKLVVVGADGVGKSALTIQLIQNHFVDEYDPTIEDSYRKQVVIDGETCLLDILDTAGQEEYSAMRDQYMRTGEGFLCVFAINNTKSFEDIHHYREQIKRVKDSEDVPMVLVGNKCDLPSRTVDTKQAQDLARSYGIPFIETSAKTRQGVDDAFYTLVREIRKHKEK
Chain of KRAS G12D (P62937 whole entry): as the sequence (P62937 whole entry) above
Chain of KRAS G13D (P01116 1-169 isoform P01116-2 G13D limits assumed): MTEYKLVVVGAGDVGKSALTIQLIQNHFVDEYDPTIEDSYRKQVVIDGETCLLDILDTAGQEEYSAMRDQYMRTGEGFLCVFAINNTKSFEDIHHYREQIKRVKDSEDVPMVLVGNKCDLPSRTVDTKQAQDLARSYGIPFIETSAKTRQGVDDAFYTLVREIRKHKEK
Chain of KRAS G13D (P62937 whole entry): as the sequence (P62937 whole entry) above
Chain of KRAS G13C (P01116 1-169 isoform P01116-2 G13C): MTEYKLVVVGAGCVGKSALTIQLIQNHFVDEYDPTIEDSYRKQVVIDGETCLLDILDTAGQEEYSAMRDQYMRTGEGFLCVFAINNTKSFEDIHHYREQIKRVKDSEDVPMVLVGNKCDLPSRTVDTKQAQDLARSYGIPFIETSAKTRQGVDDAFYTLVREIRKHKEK
Chain of KRAS G13C (P62937 whole entry): as the sequence (P62937 whole entry) above

SMILES | IC50 (KRAS G12V) [nM] | IC50 (KRAS G12S) [nM] | IC50 (KRAS G13C) [nM] | IC50 (KRAS WT) [nM] | IC50 (KRAS G12D) [nM] | IC50 (KRAS G12C) [nM] | IC50 (KRAS G13D) [nM] | IC50 (NRAS G12C) [nM] | IC50 (NCI-H358 (K-Ras G12C)) [nM] | IC50 (NRAS Q61R) [nM] | IC50 (KRAS Q61H) [nM] | IC50 (NRAS WT) [nM] | IC50 (NRAS Q61K) [nM] | IC50 (Capan-1 (K-Ras G12V)) [nM]
CCn1c(-c2cccnc2[C@H](C)OC)c2c3cc(ccc31)-c1csc(n1)C[C@H](NC(=O)[C@H](C(C)C)N(C)C(=O)N1CC3(CCCO3)C1)C(=O)N1CCC[C@H](N1)C(=O)OCC(C)(C)C2 (atropisomer, axis not shown) [Example A522] | 100 to 1000 | 100 to 1000 | 100 to 1000 | 100 to 1000 | 1000 to 10000 | 100 to 1000 | 1000 to 10000 | 100 to 1000 | 10 to 100 | 100 to 1000 | 100 to 1000 | 100 to 1000 | 10 to 100 | 100 to 1000
CCn1c(-c2cccnc2[C@H](C)OC)c2c3cc(ccc31)-c1csc(n1)C[C@H](NC(=O)[C@H](C(C)C)N(C)C(=O)N1CC3(CC(O)C3)C1)C(=O)N1CCC[C@H](N1)C(=O)OCC(C)(C)C2 (atropisomer, axis not shown) [Example A510] | 100 to 1000 | 100 to 1000 | 100 to 1000 | 100 to 1000 | 1000 to 10000 | 10 to 100 | 100 to 1000 | 10 to 100 | 10 to 100 | 100 to 1000 | 10 to 100 | 100 to 1000 | 10 to 100 | 10 to 100
CCn1c(-c2cccnc2[C@H](C)OC)c2c3cc(ccc31)-c1csc(n1)C[C@H](NC(=O)[C@H](C(C)C)N(C)C(=O)N1CCN(C(=O)CCN(C)C)CC1)C(=O)N1CCC[C@H](N1)C(=O)OCC(C)(C)C2 [Example A459] | 100 to 1000 | 10 to 100 | 10 to 100 | 10 to 100 | 100 to 1000 | 10 to 100 | 10 to 100 | 10 to 100 | 10 to 100 | 10 to 100 | 10 to 100 | 10 to 100 | 10 to 100 | 100 to 1000

The next lines start with results.

IC50 (KRAS G12V) [nM] | IC50 (KRAS G12S) [nM] | IC50 (KRAS G13C) [nM] | IC50 (KRAS WT) [nM] | IC50 (KRAS G12D) [nM] | IC50 (KRAS G12C) [nM] | IC50 (KRAS G13D) [nM] | IC50 (NRAS G12C) [nM] | IC50 (NCI-H358 (K-Ras G12C)) [nM] | IC50 (NRAS Q61R) [nM] | IC50 (KRAS Q61H) [nM] | IC50 (NRAS WT) [nM] | IC50 (NRAS Q61K) [nM] | SMILES | IC50 (Capan-1 (K-Ras G12V)) [nM]
100 to 1000 | 100 to 1000 | 100 to 1000 | 100 to 1000 | 1000 to 10000 | 100 to 1000 | 1000 to 10000 | 100 to 1000 | 100 to 1000 | 100 to 1000 | 100 to 1000 | 100 to 1000 | 100 to 1000 | CCn1c(-c2cccnc2[C@H](C)OC)c2c3cc(ccc31)-c1csc(n1)C[C@H](NC(=O)[C@@H](OC(=O)N1CC(OC)C1)C(C)C)C(=O)N1CCC[C@H](N1)C(=O)OCC(C)(C)C2 [Example A354] | 100 to 1000
100 to 1000 | 100 to 1000 | 100 to 1000 | 100 to 1000 | 1000 to 10000 | 100 to 1000 | 100 to 1000 | 100 to 1000 | 10 to 100 | 100 to 1000 | 100 to 1000 | 100 to 1000 | 100 to 1000 | CCn1c(-c2cccnc2[C@H](C)OC)c2c3cc(ccc31)-c1csc(n1)C[C@H](NC(=O)[C@H](C(C)C)N(C)C(=O)N1CC3(CCN(C)CC3)C1)C(=O)N1CCC[C@H](N1)C(=O)OCC(C)(C)C2 [Example A513] | 10 to 100
100 to 1000 | 100 to 1000 | 100 to 1000 | 100 to 1000 | 100 to 1000 | 10 to 100 | 100 to 1000 | 10 to 100 | < 10 | 10 to 100 | 10 to 100 | 10 to 100 | 10 to 100 | CCn1c(-c2cccnc2[C@H](C)OC)c2c3cc(ccc31)-c1csc(n1)C[C@H](NC(=O)[C@H](C(C)C)N(C)C(=O)N1CC(CO)C1)C(=O)N1CCC[C@H](N1)C(=O)OCC(C)(C)C2 (atropisomer, axis not shown) [Example A356] | 10 to 100

Source: patent publication US20230233569A1 (Revolution Medicines, Inc., priority 2020, published 2023)
